Measurements published in publication PMC8053042 (Cell chemical biology, 2020).

Biological target: T1, Doublecortin-like kinase 1 (DCLK1) (Homo sapiens, UniProt O15075)
T1 sequence (O15075 390-647 limits assumed): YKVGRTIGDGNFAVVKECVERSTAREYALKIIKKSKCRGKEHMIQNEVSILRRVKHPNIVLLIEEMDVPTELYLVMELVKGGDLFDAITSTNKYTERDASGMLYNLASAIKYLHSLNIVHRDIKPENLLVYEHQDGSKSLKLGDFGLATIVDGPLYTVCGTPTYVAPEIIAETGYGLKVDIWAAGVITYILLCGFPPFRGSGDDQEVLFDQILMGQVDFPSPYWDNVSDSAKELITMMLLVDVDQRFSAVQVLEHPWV
Assay: peptide substrate mobility shift kinase assay with purified DCLK1 WT
Format: biochemical

COc1cc(N2CCN(C)CC2)ccc1Nc1ncc2c(n1)N(C)c1ccccc1C(=O)N2CC(F)(F)F [DCLK1-IN-1] gave an IC50 of 55 nM.
